Experimental data from paper PMC10606834, “Is the Neuropeptide PEN a Ligand of GPR83?” (International Journal of Molecular Sciences, 2023).

Assays:
[1] = test system: GPR83 (CHO and Neuro2A cells); conditions: CHO and Neuro2A cells overexpressing human GPR83; ref [10]; cited from earlier work
Source text: (§1) While the earlier study employed CHO cells from Cricetulus griseus and Neuro2A cells from Mus musculus overexpressing human GPR83 [10], this study used human HEK293 and U2OS c ...

HEK293 cells = conditions: some batches of HEK293 cells; ref [10]; cited from earlier work
Source text: as §1

[2] = test system: GPR83 and GPR83del with Gα16 (HEK293); test: Intracellular calcium mobilization, Gα16-transfected HEK293 cells; format: cell-based, human; conditions: 10 µM PEN, 100 µM carbachol, 100 µM ATP, Fluo4-AM fluorescence, duplicate, repeated at least two times
Description: (§2) As activation of many GPCRs is coupled to calcium mobilization from intracellular stores, GPR83 was probed for ligand-dependent calcium release. Wild-type HEK293 cells and HEK293 clones overexpressing either full-length GPR83 or the N-terminal deletion variant GPR83del were exposed to buffer or one of two independent synthesis batches (PEN #1 and PEN #2) of the neuropeptide PEN, while calcium indicator fluorescence was recorded. […] Calcium release was also tested in a second cell line, osteosarcoma U2OS cells, using various stably expressing clones. […] Therefore, HEK293 cells transfected with Gα16 were employed to investigate a potential GPR83-dependent calcium mobilization with PEN. […] A number of GPCRs show ligand-independent basal calcium activity. However, in an experiment comparing basal calcium levels in wild-type HEK293 cells and in HEK293 clones overexpressing four different variants of GPR83, they were not found to be different (Figure 2D).
(§3) Figure 2 Investigation of ligand-dependent and ligand-independent intracellular calcium mobilization. (A) Wild-type HEK293 cells and HEK293 cell clones overexpressing either GPR83 or the deletion variant GPR83del were incubated with either buffer or the specified ligand (10 µM PEN or co mix = 100 µM carbachol, 100 µM ATP, 40 µM dimaprit, or 50 µM ionomycin). (B) Calcium indicator fluorescence intensity traces over 60 s of various U2OS cell clones overexpressing untagged or HA-tagged GPR83 or the deletion variant GPR83del before and after the addition of buffer or ligand (co mix as in (A) or 50 µM ionomycin or 10 µM PEN). […]
(§4) Cells were seeded at 50,000 cells/well in a poly-D-lysine coated 96-well black well/clear bottom plate (BD Falcon, Franklin Lakes, NJ, USA) and cultured overnight. […] Fluorescence was recorded with the fluorescence imaging plate reader CellLux (Perkin Elmer, Waltham, MA, USA) simultaneously in all wells at an excitation wavelength of 488 nm and emission wavelength of 510 nm in 1.5 s intervals over a period of 4 min. Fluorescence data were generated in duplicate, and experiments were repeated at least two times.

GPR83 = conditions: cited from earlier work
Source text: G protein-coupled receptor 83 (GPR83), also termed glucocorticoid-induced receptor (GIR), GPR72, KIAA1540, or JP05, is a class A G protein-coupled receptor with predominant expression in the […] and proposed function in the regulation of food intake and in anxiety-like behavior [1, 2, 3]. […] A potential role of GPR83 in regulatory T cell development and function has not been confirmed. […] The present study was initiated to evaluate PEN as a ligand of GPR83. […] While one end of the peptide may be crucial for binding the receptor, an absolute requirement of both peptide termini to be free of another ...

[3] = test system: GPR83 and deletion variant GPR83del (HEK293 clones; wild-type HEK293 as comparison); test: Intracellular calcium mobilization, HEK293 cells; format: cell-based, human
Description: as §2, §3, §4

AADHDVGSELPPEGVLGALLRV [PEN, batch #1 synthesized, batch #2 purchased from Phoenix Pharmaceuticals]
GPR83-mediated cAMP signaling [1]: Modification of GPR83-mediated cAMP signaling by PEN has been previously reported | response of HEK293 cells (HEK293 cells): had not responded to PEN | calcium signal [2]: PEN did not | ligand for GPR83 (GPR83; 2016 proposal, ref [10]): serves as a distinct ligand for GPR83 | GPR83 ligand and agonist (GPR83; comparative evaluation, multiple assay systems, ref [16]): not PEN | activation of GPR83 (GPR83; independent reports from two other labs, ref [12],[13]): supported activation of GPR83 by PEN | calcium signal ([3]; 10 µM PEN, co mix = 100 µM carbachol, 100 µM ATP, 40 µM dimaprit, 50 µM ionomycin, HEK293 wild-type, GPR83 or GPR83del clones, Fluo4-AM fluorescence, compared with buffer, duplicate, repeated at least two times): PEN did not | Ca2+ signal above background ([3]; two synthesis batches of PEN, confirmed in HEK293 and U2OS cells, full-length or truncated GPR83 (Figure 2A–C)): none of two synthesis batches of PEN from different sources was found to yield a signal above background
